In US20230026869A1, “CRYSTAL FORM OF NUCLEOPROTEIN INHIBITOR AND USE THEREOF” (CHIA TAI TIANQING PHARMACEUTICAL GROUP CO., LTD., priority 2019, published 2023):

Legend:
hepatitis B virus = experiment: In vivo efficacy study, HDJ/HBV mouse model (HBV DNA in plasma and liver by qPCR); design: species or system mice
Method: Objective: The efficacy of the compound against hepatitis B virus in mice was determined through the HDJ/HBV mouse model.
Preparation of compound: the solvent was 10% polyethylene glycol-15 hydroxystearate; a certain amount of the tested compound of formula (I) was dissolved in an aqueous solution containing 10% polyethylene glycol-15 hydroxystearate, and the mixture was vortexed and sonicated to prepare a homogeneous suspension, and the suspension was stored at 4° C. for later use.
High pressure injection of the HBV plasmid DNA solution via the tail vein of mice: the day of plasmid injection was day 0, the day after injection was day 1, and so on. On day 0, all animals were injected by tail vein with a saline solution containing 10 μg of plasmid DNA at a volume of […] of body weight, and the injection was completed within 5 seconds.
Administration: all mice were administered intragastrically twice a day (8/16 h interval) on day 1-6 and once on day 7. All mice were euthanized in the afternoon on day 7. The body weight of the mice, which was monitored every day, remained stable throughout the experiment.
Sample collection: blood was collected from the submandibular vein 4 h after the first administration in the morning on days 1, 3, and 5. All blood samples were collected in K2-EDTA anticoagulation tubes, and centrifuged for 10 min at 4° C., 7000 g to prepare about 40 μL of plasma. All mice were euthanized by CO2 four hours after administration in the morning on day 7. Blood was collected from the heart, and the plasma preparation method was the same as above. Two liver tissues were collected with 70-100 mg each, and quick-frozen by liquid nitrogen. After all samples were collected, they were stored in a refrigerator (−80° C.) for HBV DNA content detection.
Sample analysis: all plasma samples and liver samples were detected for HBV DNA by qPCR.

CYP1A2 = target: T1, CYP1A2 (Homo sapiens, UniProt P05177); experiment: Inhibition of human liver microsomal cytochrome P450 isoenzyme CYP1A2; assay type: in vitro ADME; conditions: human liver microsomes
T1 construct: from tissue; host or cells: human liver microsomes
T1 sequence (P05177 1-516): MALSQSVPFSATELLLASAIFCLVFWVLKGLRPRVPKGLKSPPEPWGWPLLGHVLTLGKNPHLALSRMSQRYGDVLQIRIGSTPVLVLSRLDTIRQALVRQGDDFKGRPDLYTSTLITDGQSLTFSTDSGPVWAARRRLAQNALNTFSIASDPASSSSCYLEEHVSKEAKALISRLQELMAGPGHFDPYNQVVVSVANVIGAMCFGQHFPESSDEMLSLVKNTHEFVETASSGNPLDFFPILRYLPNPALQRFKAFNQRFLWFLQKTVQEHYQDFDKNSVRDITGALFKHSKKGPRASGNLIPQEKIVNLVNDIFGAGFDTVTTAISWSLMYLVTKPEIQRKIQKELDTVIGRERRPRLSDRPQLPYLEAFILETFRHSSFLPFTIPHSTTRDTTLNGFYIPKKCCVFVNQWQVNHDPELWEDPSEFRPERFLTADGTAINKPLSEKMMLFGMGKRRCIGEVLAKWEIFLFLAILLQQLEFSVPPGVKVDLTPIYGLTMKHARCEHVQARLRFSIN
Method: Objective: The inhibitory effect of the test compound on the activity of human liver microsomal cytochrome P450 isoenzymes (CYP1A2, CYP2C9, CYP2C19, CYP2D6 and CYP3A4) was determined. […]

[1] = 10 mg/kg intragastrically twice a day
[2] = 30 mg/kg intragastrically twice a day

## CC1(NC(=O)C(=O)c2c(Cl)c(C(=O)Nc3cc(F)c(F)c(F)c3)c3n2CCC3)CCC(CC(=O)O)CC1 (centres unmarked) [Compound of formula (I)]
Hepatitis B virus; [1]
  HBV-DNA reduction, Liver (day 7): 0.94 Δ Log10 copies/100 ng
  HBV-DNA reduction, Plasma (day 5): 2.0 Δ Log10 copies/μL
Hepatitis B virus; [2]
  HBV-DNA reduction, Liver (day 7): 2.36 Δ Log10 copies/100 ng
  HBV-DNA reduction, Plasma (day 5): 3.57 Δ Log10 copies/μL
CYP1A2
  IC50: > 50 µM
